In patent US8808742B2, “Compositions and methods for preparing and using same” (Ardea Biosciences, Inc., priority 2008, dated 2014):
Where two headings read alike, the source gives them in different places.

What was measured:
[1] = test system: phosphorylated ERK in MDA-MB-231 breast cancer cells; experiment: Western blotting for phosphorylated ERK in MDA-MB-231 cells (EC50 data); assay type: cell-based; conditions: Homo sapiens, 0.5 h, 30 min compound, EGF stimulation, read-out: MDA pERK ELISA EC50
Method: Effects of compounds in the cell were determined by Western blotting for phosphorylated ERK. MDA-MB-231 breast cancer cells were plated in a 48 well plate at 20,000 cells per well and grown in a 37° humidified CO2 incubator. The following day, the growth media (DMEM+10% fetal bovine serum) was removed and replaced with starve media (DMEM+0.1% fetal bovine serum). Cells were incubated in the starve media for sixteen hours and then treated with a range of compound concentrations for thirty minutes. After incubation with compound, cells were stimulated with 100 ng/mlEGF for five minutes. The cells were then lysed and analyzed by Western blot using a monoclonal antibody raised to phosphorylated ERK. The signal was amplified using a secondary antibody conjugated to a near-IR dye and detected on a Licor Odyssey scanner.

A375 melanoma tumors = experiment: A375 melanoma xenograft, tumor growth inhibition / delay; assay type: in vivo, nu/nu mice
Method: (§1) Human tumors were implanted in nu/nu mice. Compound no. 1021 was administered orally for 14 days once tumors were approximately 100 mm^3 in size. Tumor growth inhibition (TGI) was determined after 14 days of treatment as the reduction in the size of tumors in treated groups versus vehicle controls. The time to endpoint (TTE) was calculated as the time for the tumor to reach the specified endpoint volume or the last day of the study, whichever came first. Treatment outcome was determined from percent tumor growth delay (% TGD), defined as the percent increase in median TTE of treated versus vehicle-treated control mice. Animals were also monitored for regression responses. Levels of pERK in tumors and brain were determined by Western blots and correlated with plasma levels of Compound no. […] A number of tumor models were evaluated with different doses and dosing regimens. […] The effect of different dosing regimens was evaluated in A375 xenografts. […]
(§2) Tumor Growth Inhibition for the groups treated with 25 mg/kg Compound no. 1021 were calculated for the indicated tumor xenografts. Tumor Growth Inhibition was measured at the end of once daily dosing for 14 days and calculated according to: […]
Female nu/nu mice were implanted with A375 tumor cells, which were allowed to grow to 100-200 mm^3. […] Tumor Growth Inhibition was measured at the end of once daily dosing for 14 days and calculated according to: […]

[2] = test system: Colo205 colon cancer tumors; experiment: Colo205 colon tumor xenograft, tumor growth inhibition / delay; assay type: in vivo, nu/nu mice
Method: (§3) Human tumors were implanted in nu/nu mice. Compound no. 1021 was administered orally for 14 days once tumors were approximately 100 mm^3 in size. Tumor growth inhibition (TGI) was determined after 14 days of treatment as the reduction in the size of tumors in treated groups versus vehicle controls. The time to endpoint (TTE) was calculated as the time for the tumor to reach the specified endpoint volume or the last day of the study, whichever came first. Treatment outcome was determined from percent tumor growth delay (% TGD), defined as the percent increase in median TTE of treated versus vehicle-treated control mice. Animals were also monitored for regression responses. Levels of pERK in tumors and brain were determined by Western blots and correlated with plasma levels of Compound no. 1021 for the pharmacodynamic/pharmacokinetic study. A number of tumor models were evaluated with different doses and dosing regimens. […] The effect of different dosing regimens was evaluated in A375 xenografts. Although 100 mg/kg Compound no. […] 1021. […]
as §2

HT29 colon cancer tumors = experiment: HT29 colon tumor xenograft, tumor growth inhibition; assay type: in vivo, nu/nu mice; conditions: oral 25 mg/kg QD
Method: as §3, §2

A431 epidermoid tumors = experiment: A431 epidermoid tumor xenograft, tumor growth inhibition / delay; assay type: in vivo, nu/nu mice
Method: as §3, §2

[3] = Plasma concentrations in A375 xenograft mice, QD vs BID; assay type: in vivo, Female nu/nu mice; conditions: oral
[4] = test system: MEK (pERK levels) in Colo205 tumors; experiment: MEK inhibition (pERK Western blot) in Colo205 xenograft tumors vs plasma concentration; assay type: in vivo, Female nu/nu mice; conditions: Colo205 xenografts, pharmacodynamic/pharmacokinetic study
Method: as §1
(§4) Female nu/nu mice implanted with Colo205 tumor cells were given a single dose of vehicle or Compound no. […] Compound levels were determined in plasma samples and pERK levels were determined in tumor and brain samples collected at 2, 6, 12, and 24 hr post-dose. The pERK levels from Western blots were quantified using the LI-COR Odyssey, normalized to total ERK levels and compared to vehicle-treated levels to determine % MEK inhibition. […]

[5] = test system: brain MEK activity (pERK levels); experiment: Inhibition of brain MEK activity (pERK Western blot) vs plasma concentration; assay type: in vivo, Female nu/nu mice; conditions: Colo205 xenograft mice, pharmacodynamic/pharmacokinetic study
Method: as §1, §4

[6] = Single-dose capsule administration in human cancer patients, concentration-time profiles; conditions: in vivo, oral, capsules of example 95A
Method: Administration of the capsules described in example 95A in Human Cancer Patients.Human cancer patients were administered a single dose of the 1 mg or 10 mg capsule composition described above in example 95A. For a 2 mg dose, patients were given 2×1 mg capsules; for a 4 mg dose, patients were given 4×1 mg capsules; for a 6 mg dose, patients were given 6×1 mg capsules; for a 10 mg dose, patients were given 1×10 mg capsule; for a 20 mg dose, patients were given 2×10 mg capsules.
The concentration-time profiles were monitored and are shown in FIG. 4 and in the table below: […]

[7] = column 2, no head, 2nd regimen of b975: 25 mg/kg BID

CNCCS(=O)(=O)Nc1ccc(F)c(F)c1Nc1ccc(I)cc1F [compound 0621002]
EC50 [1]: 15 to 100 nM

O=S(=O)(Nc1ccc(F)c(F)c1Nc1ccc(-c2cccnc2)cc1F)C1CC1 [compound 0497689]
EC50 [1]: > 200 nM

COc1cc(F)c(F)c(Nc2ccc(I)cc2F)c1NS(=O)(=O)C1(C[C@H](O)CO)CC1 [Compound no. 1021]
% TGD, significance (A375 melanoma tumors; 25 or 50 mg/kg QD): statistically significant | TGI, significance (A375 melanoma tumors; oral 25 mg/kg QD): Statistically significant | % TGD, significance ([2]; 25 or 50 mg/kg QD): statistically significant | TGI, significance ([2]; oral 25 mg/kg QD): Statistically significant | TGI, significance (HT29 colon cancer tumors): Statistically significant | % TGD, significance (A431 epidermoid tumors; 25 or 50 mg/kg QD): statistically significant | TGI, significance (A431 epidermoid tumors; oral 25 mg/kg QD): Statistically significant | Cmin Free Fraction ([3]; column 1, no head, 1st regimen of b975: 50 mg/kg QD): 0.117 ng/mL | Cmax [3, 7]: 10200 ng/mL | Cmin Free Fraction [3, 7]: 2.48 ng/mL | Cmin Free Fraction ([3]; column 3, no head, 3rd regimen of b975: printed 50 mg/kg QD): 0.059 ng/mL | Cmin Free Fraction ([3]; column 4, no head, 4th regimen of b975: 12.5 mg/kg BID): 0.986 ng/mL | pERK formation in tumors [4]: inhibition of pERK formation | pERK inhibition in brain [5]: minimal inhibition | concentration at 12 h ([6]; 2 mg, Dose 2 mg, Day 1, read-out: C12 hr): 0.0378 ng/mL | concentration at 12 h ([6]; 2 mg, Dose 2 mg, Day 35, read-out: C12 hr): 0.0756 ng/mL | concentration at 12 h ([6]; 4 mg, Dose 4 mg, Day 1, read-out: C12 hr): 0.134 ng/mL | concentration at 12 h ([6]; 4 mg, Dose 4 mg, Day 35, read-out: C12 hr): 0.31 ng/mL | concentration at 12 h ([6]; 10 mg, Dose 10 mg, Day 35, read-out: C12 hr): 1.01 ng/mL | concentration at 12 h ([6]; 20 mg, Dose 20 mg, Day 35, read-out: C12 hr): 2.19 ng/mL

O=S(=O)(Nc1ccc(F)c(F)c1Nc1ccc(I)cc1F)c1ccc(-c2nsc(Cl)n2)s1 [compound 0530701]
EC50 [1]: 100 to 200 nM

O=S(=O)(Nc1ccc(F)c(F)c1Nc1ccc(I)cc1F)C1CCNCC1 [compound 0561599]
EC50 [1]: 15 to 100 nM

COC(=O)c1sccc1S(=O)(=O)Nc1ccc(F)c(F)c1Nc1ccc(I)cc1F [compound 0620926]
EC50 [1]: > 200 nM

Cn1cc(S(=O)(=O)Nc2ccc(F)c(F)c2Nc2ccc(I)cc2F)c(C(F)(F)F)n1 [compound 0621026]
EC50 [1]: 100 to 200 nM

CCN(C)CCS(=O)(=O)Nc1ccc(F)c(F)c1Nc1ccc(I)cc1F [compound 0621029]
EC50 [1]: 100 to 200 nM

O=S(=O)(Nc1ccc(F)c(F)c1Nc1ccc(-c2cc[nH]n2)cc1F)C1CC1 [compound 0497654]
EC50 [1]: 100 to 200 nM

CS(=O)(=O)Nc1ccc(-c2ccc(Nc3c(NS(=O)(=O)C4CC4)ccc(F)c3F)c(F)c2)cc1 [compound 0499271]
EC50 [1]: > 200 nM

COC(=O)c1ccc(S(=O)(=O)Nc2ccc(F)c(F)c2Nc2ccc(I)cc2F)n1C [compound 0561608]
EC50 [1]: 15 to 100 nM

CN(C)CCNCCS(=O)(=O)Nc1ccc(F)c(F)c1Nc1ccc(I)cc1F [compound 0621016]
EC50 [1]: 15 to 100 nM

CC(=O)c1cccc(-c2ccc(Nc3c(NS(=O)(=O)C4CC4)ccc(F)c3F)c(F)c2)c1 [compound 0499266]
EC50 [1]: > 200 nM

Cn1cc(-c2ccc(Nc3c(NS(=O)(=O)C4CC4)ccc(F)c3F)c(F)c2)cn1 [compound 0497620]
EC50 [1]: > 200 nM

O=S(=O)(Nc1ccc(F)c(F)c1Nc1ccc(-c2ccncc2)cc1F)C1CC1 [compound 0497688]
EC50 [1]: > 200 nM

O=S(=O)(Nc1ccc(F)c(F)c1Nc1ccc(-c2cn[nH]c2)cc1F)C1CC1 [compound 0497618]
EC50 [1]: > 200 nM

O=S(=O)(Nc1ccc(F)c(F)c1Nc1ccc(-c2ccccc2)cc1F)C1CC1 [compound 0497692]
EC50 [1]: > 200 nM
